Laboratory results from patent US20150164762A1, “USE OF ETHANOLAMINE PHOSPHATE” (priority 2012, published 2015).

Test system: BEAS-2B
Assay: Comprehensive gene expression analysis with Whole Human Genome DNA microarray after EP treatment
Format: cell-based
Description: Cells of the established normal human airway epithelial cell line BEAS-2B were used in the experiment. These cells were expansively cultured in 10% FBS RPMI-1640, and seeded at a density of 1×10^5/cm^2 on a 24-well plate. After 24 hours 0.1% FBS RPMI-1640 was substituted, and EP was administered to a final concentration of 0 or 1 mM (n=4). After 24 hours, the cells were used as the DNA microarray samples. RNA was extracted using a QIAGEN RNeasy Mini Kit. The DNA microarray test was performed using a Whole Human Genome DNA microarray 4×44K (Agilent), and the necessary labeling reagents and the like for the DNA microarray test were all from Agilent. The DNA microarray test data were analyzed statistically with GeneSpring (Agilent) dedicated analysis software, and gene function analysis (Gene Ontology (GO) analysis) was performed based on differential expression. The purpose of the GO analysis is to determine stochastically the degree to which gene sets with statistically significant differential expression correspond to known functional classification gene sets. […] The p-value is calculated according to the following formula.

[1] = probe A_23_P92499, 1 mM EP, 24 h
[2] = probe A_23_P94754, NM_005118, EP vs control
[3] = probe A_23_P94754, 1 mM EP, 24 h
[4] = probe A_23_P104798, NM_001562, EP vs control
[5] = probe A_23_P104881, 1 mM EP, 24 h
[6] = probe A_23_P105138, NM_001752, EP vs control
[7] = probe A_23_P105138, 1 mM EP, 24 h
[8] = probe A_23_P105803, 1 mM EP, 24 h
[9] = probe A_23_P110052, 1 mM EP, 24 h
[10] = probe A_23_P110151, 1 mM EP, 24 h
[11] = probe A_23_P114662, NM_001889, EP vs control
[12] = probe A_23_P115286, 1 mM EP, 24 h
[13] = probe A_23_P118061, 1 mM EP, 24 h
[14] = probe A_23_P118174, 1 mM EP, 24 h
[15] = probe A_23_P122052, NM_001008397, EP vs control
[16] = probe A_23_P122216, NM_002317, EP vs control
[17] = probe A_23_P122216, 1 mM EP, 24 h
[18] = probe A_23_P122775, NM_032730, EP vs control
[19] = probe A_23_P126844, 1 mM EP, 24 h
[20] = probe A_23_P127322, NM_018055, EP vs control
[21] = probe A_23_P127406, NM_018039, EP vs control
[22] = probe A_23_P128050, 1 mM EP, 24 h
[23] = probe A_23_P128215, 1 mM EP, 24 h
[24] = probe A_23_P128230, 1 mM EP, 24 h
[25] = probe A_23_P129313, NM_001159508, EP vs control
[26] = probe A_23_P131588, NM_014482, EP vs control
[27] = probe A_23_P132388, NM_005138, EP vs control
[28] = probe A_23_P134925, 1 mM EP, 24 h
[29] = probe A_23_P135024, 1 mM EP, 24 h
[30] = probe A_23_P135248, NM_006664, EP vs control
[31] = probe A_23_P136116, NM_001004320, EP vs control
[32] = probe A_23_P136493, NM_013962, EP vs control
[33] = probe A_23_P138635, 1 mM EP, 24 h
[34] = probe A_23_P143242, 1 mM EP, 24 h
[35] = probe A_23_P145357, 1 mM EP, 24 h
[36] = probe A_23_P146644, 1 mM EP, 24 h

NCCOP(=O)(O)O [EP, Ethanolamine phosphate]
CIDEC expression log2 [ratio] (probe A_23_P92025, 1 mM EP, 24 h): −0.754
TLR2 expression R*: Ratio to control [1]: 0.632 times
TLR2 expression log2 [ratio] [1]: −0.662
TNFSF15 gene expression, R* ratio to control [2]: 0.399 times
TNFSF15 gene expression, log2 [ratio] [2]: −1.327
TNFSF15 expression R*: Ratio to control [3]: 0.399 times
TNFSF15 expression log2 [ratio] [3]: −1.327
IL18 gene expression, R* ratio to control [4]: 0.641 times
IL18 gene expression, log2 [ratio] [4]: −0.641
ROBO4 expression R*: Ratio to control [5]: 1.785 times
ROBO4 expression log2 [ratio] [5]: 0.836
CAT gene expression, R* ratio to control [6]: 1.505 times
CAT gene expression, log2 [ratio] [6]: 0.589
CAT expression R*: Ratio to control [7]: 1.505 times
CAT expression log2 [ratio] [7]: 0.589
FGF9 expression R*: Ratio to control [8]: 1.606 times
FGF9 expression log2 [ratio] [8]: 0.684
FOXL2 expression R*: Ratio to control [9]: 0.352 times
FOXL2 expression log2 [ratio] [9]: −1.504
ARHGAP24 expression R*: Ratio to control [10]: 1.670 times
ARHGAP24 expression log2 [ratio] [10]: 0.740
CRYZ gene expression, R* ratio to control [11]: 1.632 times
CRYZ gene expression, log2 [ratio] [11]: 0.707
BCL10 expression R*: Ratio to control [12]: 0.542 times
BCL10 expression log2 [ratio] [12]: −0.883
CKLF expression R*: Ratio to control [13]: 1.501 times
CKLF expression log2 [ratio] [13]: 0.586
PLK1 expression R*: Ratio to control [14]: 2.447 times
PLK1 expression log2 [ratio] [14]: 1.291
GPX8 gene expression, R* ratio to control [15]: 1.413 times
GPX8 gene expression, log2 [ratio] [15]: 0.499
LOX gene expression, R* ratio to control [16]: 1.637 times
LOX gene expression, log2 [ratio] [16]: 0.711
LOX expression R*: Ratio to control [17]: 1.637 times
LOX expression log2 [ratio] [17]: 0.711
RTN4IP1 gene expression, R* ratio to control [18]: 1.436 times
RTN4IP1 gene expression, log2 [ratio] [18]: 0.522
TNFRSF25 expression R*: Ratio to control [19]: 0.532 times
TNFRSF25 expression log2 [ratio] [19]: −0.909
NODAL gene expression, R* ratio to control [20]: 0.450 times
NODAL gene expression, log2 [ratio] [20]: −1.154
KDM4D gene expression, R* ratio to control [21]: 1.448 times
KDM4D gene expression, log2 [ratio] [21]: 0.534
BCL2L14 expression R*: Ratio to control [22]: 0.594 times
BCL2L14 expression log2 [ratio] [22]: −0.751
SOCS2 expression R*: Ratio to control [23]: 1.720 times
SOCS2 expression log2 [ratio] [23]: 0.783
NR4A1 expression R: Ratio to control [24]: 0.302 times
NR4A1 expression log2 [ratio] [24]: −1.727
IVD gene expression, R* ratio to control [25]: 1.473 times
IVD gene expression, log2 [ratio] [25]: 0.559
BMP10 gene expression, R* ratio to control [26]: 0.625 times
BMP10 gene expression, log2 [ratio] [26]: −0.678
SCO2 gene expression, R* ratio to control [27]: 1.495 times
SCO2 gene expression, log2 [ratio] [27]: 0.580
BNIP3L expression R*: Ratio to control [28]: 0.633 times
BNIP3L expression log2 [ratio] [28]: −0.661
ARHGEF6 expression R*: Ratio to control [29]: 0.270 times
ARHGEF6 expression log2 [ratio] [29]: −1.889
CCL27 gene expression, R* ratio to control [30]: 0.556 times
CCL27 gene expression, log2 [ratio] [30]: −0.846
TMEM195 gene expression, R* ratio to control [31]: 1.962 times
TMEM195 gene expression, log2 [ratio] [31]: 0.972
NRG1 gene expression, R* ratio to control [32]: 0.646 times
NRG1 gene expression, log2 [ratio] [32]: −0.830
BNIP3 expression R*: Ratio to control [33]: 0.374 times
BNIP3 expression log2 [ratio] [33]: −1.418
CEBPB expression R*: Ratio to control [34]: 0.617 times
CEBPB expression log2 [ratio] [34]: −0.697
BAK1 expression R*: Ratio to control [35]: 0.402 times
BAK1 expression log2 [ratio] [35]: −1.313
ANXA2 expression R*: Ratio to control [36]: 1.673 times
ANXA2 expression log2 [ratio] [36]: 0.742
